Consider six compounds from BindingDB's records for doi:10.1021/jm990447m (Metabasis Therapeutics, 2000).

Molecules are shown by their SMILES.

The assay is described as follows: Evaluated for the inhibition of porcine heart or human L-type Adenosine 5'-monophosphate deaminase (AMPDA).
The compound `O=C(O)CCCCCCCn1cnc2c1N=CNCC2O` (stereo unspecified) [8-(8-Hydroxy-7,8-dihydro-6H-imidazo[4,5-d][1,3]diazepin-3-yl)-octanoic acid] returned an inhibition constant (Ki) of 8 µM.

In turn, `N#CCCCCCCn1cnc2c1N=CNCC2O` (stereo unspecified) [7-(8-Hydroxy-7,8-dihydro-6H-imidazo[4,5-d][1,3]diazepin-3-yl)-heptanenitrile] had a Ki of 170 µM. To `O=C(O)CCCOCn1cnc2c1N=CNCC2O` (stereo unspecified) [Sodium; 4-(8-hydroxy-7,8-dihydro-6H-imidazo[4,5-d][1,3]diazepin-3-ylmethoxy)-butyrate H2O] belongs 85 µM; to `COC(=O)CCCCCCCn1cnc2c1N=CNCC2O` (stereo unspecified) [8-(8-Hydroxy-7,8-dihydro-6H-imidazo[4,5-d][1,3]diazepin-3-yl)-octanoic acid methyl ester], 20 µM; to `CCCCCCCCn1cnc2c1N=CNCC2O` (stereo unspecified) [3-Octyl-3,6,7,8-tetrahydro-imidazo[4,5-d][1,3]diazepin-8-ol 0.25H2O], 18 µM. Compound `CCCCCCCn1cnc2c1N=CNCC2O` (stereo unspecified) [3-Heptyl-3,6,7,8-tetrahydro-imidazo[4,5-d][1,3]diazepin-8-ol] gave an inhibition constant (Ki) of 10 µM.

The Ki is a measure of affinity in units of concentration, obtained from inhibition or displacement. Read a high Ki as lower affinity.
